Test results taken from patent publication US9980937B2, “Therapeutic agent for Alzheimer's disease” (NAGASAKI UNIVERSITY, priority 2014, dated 2018).

Assays:
[1] = tested on: neprilysin; experiment: neprilysin activity staining of primary culture nerve cells; assay type: cell-based; conditions: mouse primary culture nerve cells, 48 hr; Minocycline 5 μM, Somatostatin and Harmine 1 μM, others 10 μM (FIG. 4C)
Procedure: This is a method of measuring the amount of neprilysin localized on the cell membrane surface by using cultured cells. Since Aβ is secreted extracellularly, the more neprilysin is present on the cell membrane, the more efficiently Aβ can be degraded and removed. The following procedure was performed according to a previous report (JP-A-2004-151079; Saito T., Iwata N., et al., Nat. Med. 11(4), 434-439, 2005).
Nerve cells prepared from mouse embryocerebral cortex and hippocampus were cultured and fixed, and reacted with a substrate. After completion of the reaction, aminopeptidase-phosphoramidon mixture and nitrosalicylaldehyde solution were sequentially added and reacted. For the cells after completion of the reaction, positively stained images were observed using a filter for argon laser and rhodamine under a confocal laser microscope. More conveniently, it is also possible to observe positively stained images by using a FITC filter under a fluorescence microscope. When the substrate is degraded by neprilysin, an insoluble fluorescence reaction product is formed, and the site where neprilysin is present is visualized in yellow (pseudocolor and could be green). When the cells are stained by this method, the copresence of thiorphan, which is a specific inhibitor of neprilysin, causes disappearance of the positively stained images, and therefore, the presence of neprilysin on the cell surface of primary culture nerve cells of mouse embryocerebral cortex and hippocampus can be confirmed.
The nerve cells prepared from mouse embryocerebral cortex and hippocampus were cultured, the following test compounds were individually added at a given concentration from day 7 to day 21 of culture, and further cultured for 48 hr. After completion of the culture, the neprilysin activity of the mouse primary culture nerve cells was visualized and observed by the method shown in the above-mentioned 1. The stained images were quantified by an image analysis software (MetaMorph, ver. 7.7 (Universal Imaging Corporation, Downington, Pa.)) and studied. […]

[2] = tested on: neprilysin; experiment: neprilysin-dependent neutral endopeptidase activity of APP-H4 cell extract (suc-AAF-AMC coupled enzyme assay); assay type: cell-based, human; conditions: APP-H4 cells, 48 hr, 1 or 10 μM; activity without polyphenol derivative = 1 (FIG. 1)
Procedure: (§1) APP-H4 cells were seeded to a 6-well plate at a density of 12×10^4 cells/1.5 mL, and cultured in Dulbecco's modified Eagle's medium (DMEM; Nacalai Tesque, Inc.) added with 10% fetal bovine serum (FBS; Equitech-Bio, Inc. [Kerrville, Tex., USA]), 100 U/mL penicillin+100 μg/mL streptomycin (Nacalai Tesque, Inc.). After culture for 24 hr, the culture supernatant was removed, and the medium was exchanged with a medium with reduced use amount of serum, Opti-MEM (registered trade mark) I Reduced Serum Medium (Life Technologies Corporation, Carlsbad, Calif., USA) (1 mL). A polyphenol derivative (1 μL) to be the test target was added, and the mixture was further cultured for 48 hr. After culture, the culture supernatant was recovered in a tube (total amount 1.5 mL), centrifuged at 4,000×g/4° C./10 min to remove dead cells, and the supernatant (800 μL) was placed in a new tube. The culture supernatant was preserved at −80° C. before sample preparation. The cells were washed twice with ice-cooled phosphate-buffered saline (PBS). Thereafter, the cells were scraped from the plate using a Cell Scraper. The cells were recovered in a 1.5 mL tube and centrifuged at 4,000×g/4° C./10 min. The supernatant was removed and the cells were preserved at −80° C. before sample preparation. The frozen cells were lysed in 40 μL of solubilization buffer containing 1% Triton X-100, protease inhibitor cocktail Complete™ EDTA-free (Roche) and 50 mM Tris-HCl on ice. The cell lysate was incubated on ice for 60 min, centrifuged at 4° C., 21,900×g for 30 min, and the supernatant was recovered and used as a solubilization cell extract.
The total protein concentration of the cell extract was determined by a BCA protein assay kit (Takara) by using BSA as the standard solution. The final concentration of the test compound used was 1 μM or 10 μM, and quantification was performed using each solvent as a control.
The neprilysin-dependent neutral endopeptidase activity of the cell extract was measured fluorescence quantitatively by an indirect coupled enzyme assay method. […] Total 50 μL of the reaction mixture was prepared such that the final concentration was substrate 0.1 mM suc-AAF-AMC, protein in the cell extract 1-6 μg, 100 mM MES buffer (pH 6.5). With the time of addition of the substrate as the start of the reaction, the mixture was reacted at 37° C. for 1 hr, and Phe-AMC was cut out from the substrate by neutral endopeptidase. […] The mixture was reacted at 37° C. for 30 min, and Phe (phenylalanine) residue was cut out from Phe-AMC by aminopeptidase.

[3] = tested on: neprilysin; experiment: neprilysin expression amount at protein level (western blot, APP-H4 cells); assay type: cell-based, human; conditions: 48 hr, standardized to β-actin (FIG. 2)
Procedure: as §1
The aforementioned cell extract was mixed with 6×SDS-polyacrylamide gel electrophoresis (SDS-PAGE) sample buffer (Nacalai Tesque, Inc.) at a ratio of 5:1, boiled for 5 min, and used as a detection sample of neprilysin, α-secretase and β-secretase proteins.
The PVDF membrane after transfer was washed with a wash buffer and immersed in a blocking buffer to prevent non-specific binding of the primary antibody, and a blocking reaction was performed at room temperature for 1 hr. […] The PVDF membrane after the reaction was washed with the wash buffer and the secondary antibody (horseradish peroxidase conjugated anti-mouse or anti-rabbit IgG (1:10,000; GE Healthcare UK Ltd.)) corresponding to the primary antibody was reacted at room temperature for 1 hr and detection was carried out using the ECL Select Western Blotting Detection Kit (GE Healthcare UK Ltd.).
The signal intensity of the band was quantified using a densitometer LAS-4000 (GE Healthcare UK Ltd.) and image analysis software Science Laboratory 2003 Image Gauge Version 4.23 (Fujifilm Holdings Corporation, Tokyo, Japan).

[4] = tested on: α-secretase; experiment: α-secretase activity (APPsα, western blot); assay type: cell-based, human; conditions: APP-H4 culture supernatant, APPsα (FIG. 2)
Procedure: as §1, with “The cells were recovered in a 1.5 mL tube and centrifuged at 4,000×g/4° C./10 min. The supernatant was removed and the cells were preserved at −80° C. before sample preparation. The frozen cells were lysed in 40 μL of solubilization buffer containing 1% Triton X-100, protease inhibitor cocktail Complete™ EDTA-free (Roche) and 50 mM Tris-HCl on ice. The cell lysate was incubated on ice for 60 min, centrifuged at 4° C., 21,900×g for 30 min, and the supernatant was recovered and used as a solubilization cell extract.” left out
(§2) The signal intensity of the band was quantified using a densitometer LAS-4000 (GE Healthcare UK Ltd.) and image analysis software Science Laboratory 2003 Image Gauge Version 4.23 (Fujifilm Holdings Corporation, Tokyo, Japan). […]

[5] = tested on: APP; experiment: extracellularly secreted APPsα/APPsβ ratio (western blot); assay type: cell-based, human; conditions: APP-H4 culture supernatant (FIG. 2)
Procedure: as §1
(§3) After thawing from −80° C., the aforementioned culture supernatant was mixed with 6×SDS-polyacrylamide gel electrophoresis (SDS-PAGE) sample buffer (Nacalai Tesque, Inc.) at a ratio of 5:1, boiled for 5 min, and used as a detection sample of APPsα which is a metabolite of APP by α-secretase and APPsβ which is a metabolite of APP by β-secretase in western blot analysis.
The PVDF membrane after transfer was washed with a wash buffer and immersed in a blocking buffer to prevent non-specific binding of the primary antibody, and a blocking reaction was performed at room temperature for 1 hr. Thereafter, it was reacted with a primary antibody (APPsα, anti-human APPsα mouse monoclonal antibody (2B3, Immuno-Biological Laboratories Co., Ltd., Gunma, Japan) (3 μg/mL); APPsβ, anti-APPsβ, rabbit polyclonal antibody, 1 μg/mL) to perform an antigen-antibody-reaction at 4° C. for not less than 16 hr. […]
as §2

[6] = tested on: ADAM17; experiment: α-secretase mRNA expression, ADAM17 (real-time PCR); assay type: cell-based, human; conditions: control = 1
Procedure: In the same manner as in the above-mentioned 2, total RNA was prepared using a High Pure RNA Isolation kit (Roche 11828665001) from the cells to be the test target cells, which were treated with each polyphenol derivative and cultured, and subjected to a reverse transcription reaction using PrimeScript RT-PCR kit (TaKaRaRR014A) to give a sample (cDNA) for real-time PCR.
The prepared sample, Premix Ex taq (Perfect Real Time) (TaKaRaRR039A) and a probe, and a primer were mixed in a tube (TaKaRa SC910A), and real-time PCR reaction (initial denaturation: 95° C. 30 sec, PCR reaction: 95° C. 5 sec, 60° C. 20 sec, 40 times) was performed by Smart Cycler II System machine (TaKaRa).
The 5′-terminus of the probe was modified by a fluorescent substance FAM, and the 3′-terminus was modified by a quencher substance TAMRA, respectively.

[7] = tested on: neprilysin, α-secretase, β-secretase; experiment: overall conclusion on modulation of neprilysin, α-secretase and β-secretase (Example 1); assay type: cell-based, human; conditions: conclusion from the results of Example 1
Procedure: as §1
The neprilysin-dependent neutral endopeptidase activity of the cell extract was measured fluorescence quantitatively by an indirect coupled enzyme assay method. As a neutral endopeptidase substrate, succinyl-Ala-Ala-Phe-7-amino-4-methylcoumarin (suc-AAF-AMC) (1-1315; Bachem) was used. Total 50 μL of the reaction mixture was prepared such that the final concentration was substrate 0.1 mM suc-AAF-AMC, protein in the cell extract 1-6 μg, 100 mM MES buffer (pH 6.5). With the time of addition of the substrate as the start of the reaction, the mixture was reacted at 37° C. for 1 hr, and Phe-AMC was cut out from the substrate by neutral endopeptidase. Then, to the reaction mixture was added a solution (2.5 μL) containing 0.1 mg (0.4 unit equivalent)/mL leucine aminopeptidase (L-5006; Sigma-Aldrich), and 0.2 mM phosphoramidon (4082; Peptide Institute). The mixture was reacted at 37° C. for 30 min, and Phe (phenylalanine) residue was cut out from Phe-AMC by aminopeptidase. Using microplate spectrometer Infinite M-1000 (Tecan), the fluorescence intensity of free AMC was measured by measuring at an excitation wavelength 390 nm and a fluorescence wavelength 460 nm on a half-well size 96-well black plate (#3695; Corning). The neprilysin-dependent neutral endopeptidase activity was determined based on a decrease in the activity due to 10 μM thiorphan (T-6031; Sigma-Aldrich) as a neprilysin specific inhibitor.
as §3, with “analysis. […]” for “analysis.”

[8] = coefficient of partition for octanol, in accordance with Fudouji et al. 2009; cited from earlier work
[9] = biological target: T1, β-secretase (Homo sapiens, UniProt P56817); experiment: β-secretase activity (APPsβ, western blot); assay type: cell-based; conditions: APP-H4 culture supernatant, APPsβ (FIG. 2)
T1 construct: endogenous in cells; host or cells: APP-H4 cells (culture supernatant analysed)
T1 sequence (P56817 46-501): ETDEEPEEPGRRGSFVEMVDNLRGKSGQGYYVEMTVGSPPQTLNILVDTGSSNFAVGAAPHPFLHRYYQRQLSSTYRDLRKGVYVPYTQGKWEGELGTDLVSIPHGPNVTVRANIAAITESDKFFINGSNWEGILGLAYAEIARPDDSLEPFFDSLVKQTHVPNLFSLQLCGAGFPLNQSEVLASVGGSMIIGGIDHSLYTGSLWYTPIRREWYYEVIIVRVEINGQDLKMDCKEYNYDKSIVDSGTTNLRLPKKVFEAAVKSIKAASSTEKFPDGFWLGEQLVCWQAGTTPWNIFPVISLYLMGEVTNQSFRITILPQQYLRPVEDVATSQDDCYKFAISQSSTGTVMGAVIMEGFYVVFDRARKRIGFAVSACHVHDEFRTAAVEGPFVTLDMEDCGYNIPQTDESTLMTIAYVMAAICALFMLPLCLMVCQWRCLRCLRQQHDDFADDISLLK
Procedure: as §1, with “extract. […]” for “extract.”
as §2

SMILES | neprilysin activity potentiating action (activity staining) [1] | neprilysin activity potentiating action [2] | expression amount of neprilysin at the protein level [3] | α-secretase activity [4] | extracellularly secreted APPsα/APPsβ ratio [5] | ADAM17 expression at the mRNA level [6] | modulator class (neprilysin / α-secretase / β-secretase) [7] | log P octanol [8] | β-secretase activity, remaining relative to control [9]
CN(C)CCCN1c2ccccc2Sc2ccc(Cl)cc21 [Chlorpromazine] | neprilysin activity potentiating action |  |  |  |  |  |  |  | 
COc1ccc2c(c1)[nH]c1c(C)nccc12 [Harmine] | neprilysin activity potentiating action |  |  |  |  |  |  |  | 
CC(C)=CCC/C(C)=C/Cc1c(O)cc(O)c2c1O[C@H](c1cc(O)c(O)c(O)c1)[C@H](OC(=O)c1cc(O)c(O)c(O)c1)C2 [NUP-16] |  | about 1.8 times that of control | about 1.8 times that of control | about 1.7 times that of control | about 1.6 times that of control | about 1.2 times that of control | double modulator | 2.55 | 
C/C(=C\Cc1c(C(=O)O[C@@H]2Cc3c(O)cc(O)cc3O[C@@H]2c2cc(O)c(O)c(O)c2)cc(O)c(O)c1O)CCCC(C)CCCC(C)CCCC(C)C (some centres unmarked) [NUP-18] |  | about 3.8 times that of control | about 3.8 times that of control | about 1.2 times that of control | about 2.1 times that of control |  | triple modulator |  | about 43 % that of control
Oc1ccc(/C=C/c2cc(O)cc(O)c2)cc1 [Resveratrol] | neprilysin activity potentiating action | about 1.4 times that of control |  |  |  |  |  |  | 
